Measurements: patent US4690822A, “Novel drug carrier and pharmaceutical preparation comprising the same” (Fujisawa Pharmaceutical Co., Ltd., priority 1985, dated 1987)

What was measured:
[1] = Solubility of FK 235 in water; type: physicochemical
[2] = fasting state; S.E. 0.7 min.; cited from earlier work

| solubility [1] [µg/mL] | Compound | half-time of the passage of fluid through pylorus [2] [min] |
| --- | --- | --- |
| < 2 | COC(=O)C1=C(C#N)NC(C)=C(C(=O)OC(C)C)C1c1cccc([N+](=O)[O-])c1 (centres unmarked) [FK 235, Isopropyl 6-cyano-5-methoxycarbonyl-2-methyl-4-(3-nitrophenyl)-1,4-dihydropyridine-3-carboxylate] |  |
|  | O [water] | 13.1 |
